In patent publication US5256533A, “As a probe of serotonin uptake harmaline” (Board of Regents, The University of Texas System, priority 1990, dated 1993):
Entries after “also recorded” stand apart in the source; their conditions may differ.

Legend:
[1] = tested on: lymphocytes and platelets; experiment: Harmaline accumulation in blood cells by ultraviolet flow cytometry; format: cell-based, human
Method: (§1) For this experiment, the beta carboline, harmaline was used. […] Prior to the use of a beta carboline to analyze blood tissues, blood was collected, then leukocytes and platelets were gradient separated utilizing a hypaque/centrifugation technique. The leukocytes were then re-suspended in culture media (phosphate buffered saline (PBS) with bovine serum albumin) at a concentration of […]. The cells and platelets may then be incubated with a solution containing antagonist(s) or blockers of undesired neurotransmitter interactions. With harmaline, there is some amount of cross reactivity with the alpha-2 (noradrenaline) receptor. As the blood cells and platelets both have alpha-2 receptors, the noradrenaline antagonist, yohimbine was chosen to block undesired reactivity with these sites. Cells were incubated for 10 minutes with a 100 μM solution of yohimbine. The cells were then divided into numerous samples which were each exposed to increasing concentrations of harmaline (1 μM to 100 μM concentrations were used) for a period of five minutes each. […] The labelled cells were then analyzed using both spectrophotofluorometry and ultraviolet flow cytometry. With the flow cytometry-analyzed tissue an experiment to detect the presence of imipramine, the serotonin uptake system antagonist, was implemented.
With flow cytometry, a sample of cells was treated prior to analysis, as above. Fluorescence of individual cells was then analyzed sequentially as they passed through detection beams of light in a micro-stream of fluid. Using this method, literally emissions of cells, or "events" were analyzed and statistically computed to elicit accuracy of analysis. In addition, as individual cells are analyzed, more subtle changes in fluorescence ligand-cell association can be appreciated. There are some procedures for measuring the actual number of binding sites on cells which combine flow cytometry with steady-state fluorescence (Steinkamp and Kramer 1979) or radiometric assays (Titus et al. 1981), while others employ fluorescent calibration standards (Sklar et al. 1984). […]

[2] = tested on: ^3 H-serotonin uptake by retina; experiment: Inhibition of 3H-serotonin uptake in retina (FIG. 5); format: cell-based
[3] = tested on: noradrenergic system of blood cells and platelets; experiment: THN accumulation in blood cells and platelets, noradrenaline system; format: cell-based; conditions: imipramine 100 μM and serotonin 100 μM pretreatment; extrapolated from literature
Method: The analysis of a noradrenaline system using the beta carboline tetrahydronorharman (THN) could be tested using the method described with blood cells and platelets. Cells and platelets would be collected, then pre-treated with solutions to block sites of the serotonin system in order to limit interactions to that of the noradrenergic system. Cells would be first incubated for 10 minutes with the serotonin uptake blocker, imipramine at 100 μM, following which serotonin itself was added to make a concentration of 100 μM for an additional 5 minute incubation. The cells and platelets thusly prepared would then be incubated with the beta carboline, THN, at concentrations of 10 nM to 100 μM. […] These values were obtained via extrapolation from pertinent literature on THN and noradrenaline.

[4] = target: [^3 H]Choline binding sites of brain tissue; experiment: Inhibition of [3H]choline binding by brain homogenates; conditions: concentration causing 50% inhibition of isotope binding
Method: (§2) Samples of brain tissue rich in the respective neurotransmitter binding sites were obtained, homogenized, washed and incubated with a series of beta carboline concentrations. After subsequent additions of tritiated neurotransmitters, the extent of beta carboline inhibition of labeled neurotransmitter binding was measured.

[5] = target: [^3 H]GABA binding sites of brain tissue; experiment: Inhibition of [3H]GABA binding by brain homogenates; conditions: concentration causing 50% inhibition of isotope binding
Method: as §2

[6] = target: [^3 h]Noradrenaline binding sites of brain tissue; experiment: Inhibition of [3H]noradrenaline binding by brain homogenates; conditions: concentration causing 50% inhibition of isotope binding
Method: as §2

[7] = target: [^3 H]Serotonin binding sites of brain tissue; experiment: Inhibition of [3H]serotonin binding by brain homogenates; conditions: concentration causing 50% inhibition of isotope binding
Method: (§3) TABLE 1 illustrates the general inhibitory effects of beta carbolines on neurotransmitter binding by brain tissue. Samples of brain tissue rich in the respective neurotransmitter binding sites were obtained, homogenized, washed and incubated with a series of beta carboline concentrations. After subsequent additions of tritiated neurotransmitters, the extent of beta carboline inhibition of labeled neurotransmitter binding was measured. As shown, a variety of beta carbolines were effective antagonists of several neurotransmitters. […] These beta carbolines may be used as vital stains for the respective neurotransmitter systems, accumulating in living tissue.

[8] = target: [^14 C]Dopamine binding sites of brain tissue; experiment: Inhibition of [14C]dopamine binding by brain homogenates; conditions: read-out: IC50, inhibition binding, concentration causing 50% inhibition of isotope binding
Method: as §3, with “After subsequent additions of tritiated neurotransmitters, the extent of beta carboline inhibition of labeled neurotransmitter binding was measured.” left out

monoamine oxidase A = conditions: Fuller et al. 1985; cited from earlier work
opiate sites = conditions: Muller et al. 1981; cited from earlier work
rat retina = experiment: Fluorescent harmaline accumulation in perfused living retina; format: cell-based
Method: One test of the serotonin site ligand, harmaline, is in the neuronal tissue of the rat retina. This tissue is known to contain intracellular serotonin. The serotonergic neurotransmitter system in rat retinal neurons has been previously studied and sites of serotonin accumulation have been identified (Redburn and Churchill 1987) primarily using radiolabelled ^3 H-serotonin (see FIG. 2). According to one test of the invention, it was determined that harmaline accumulated in living rat retina tissue in a specific manner. […] The harmaline present in the OPL begins to dissipate when the stained retina is exposed to sodium-free buffer (see FIG. 3, frame B). Exposure of the stained retina to darkness stimulates harmaline release from the OPL (see FIG. 3, frame C). Further, quantitative evaluation of harmaline accumulation was achieved by measuring the amount of fluorescence given off by harmaline when excited with UV-radiation. A light meter was used to generate data. The light meter gathered light emissions from the eyepiece of an ultraviolet microscope. Harmaline's excitation spectrum is 350-390 nm with emission spectra greatest at 480 and 560 nm in the visible range producing a blue green light. Tissue was placed under a microscope in a sealed perfusion chamber through which oxygenated (95% O2 -5% CO2) buffer flowed. Upon administration of harmaline, data from the light meter was standardized to units of harmaline concentration (using standard curves).

benzodiazepine receptor = conditions: Muller et al. 1981; cited from earlier work
serotonin receptors = conditions: Glennon 1981; cited from earlier work
leukocytes and platelets = experiment: Harmaline accumulation in blood cells by spectrophotofluorometry; format: cell-based, human
Method: as §1, with “receptor.” for “receptor. As the blood cells and platelets both have alpha-2 receptors, the noradrenaline antagonist, yohimbine was chosen to block undesired reactivity with these sites. Cells were incubated for 10 minutes with a 100 μM solution of yohimbine. The cells were then divided into numerous samples which were each exposed to increasing concentrations of harmaline (1 μM to 100 μM concentrations were used) for a period of five minutes each.”
In spectrophotofluorometry (SPF), a volume of labeled cells in suspension are analyzed together, the sum of their emitted fluorescence recorded using a spectrophotofluorometer and compared with other samples with the same concentration of cells. […] This method assumes that the fluorescence emitted from a sum of collected sources (cells) increases proportionally with an individual source. […]

[9] = tested on: muscarinic cholinergic sites; conditions: Muller et al. 1981; cited from earlier work
[10] = perfusion concentration 5 μM harmaline

Molecule | Inhibition of ^3 H-serotonin uptake by retina [2] | IC50 [4] [µM] | IC50 [5] [µM] | IC50 [6] [µM] | IC50 [7] [µM] | IC50 [8] [µM] | other results
CN(C)CCCN1c2ccccc2CCc2ccccc21 [imipramine] | antagonized | – | – | – | – | – | Effect on measured harmaline accumulation ([1]; brief incubation with imipramine 25 μM): the measured harmaline accumulation was less
c1ccc2c3c([nH]c2c1)CNCC3 [1,2,3,4-tetrahydro-beta-carboline] | – | 9000 | 153 | 13 | 6 | 220 | THN concentration at which fluorescent accumulation saturates [3]: approximately 10 μM
7-methoxy-3,4-dihydro-beta-carboline [harmaline] | competitively inhibited | – | 238 | 43 | 43 | – | Inhibition of monoamine oxidase A in vivo (monoamine oxidase A): potently inhibit; Concentration at which accumulation saturates ([1]; at 5 minutes): 75 to 100 µM; EC50 ([1]; yohimbine 100 μM pretreatment, harmaline 1-100 μM, 5 minutes, read-out: EC50 of fluorescent accumulation (flow cytometry)): 25 µM; IC50 for opiate sites relative to other sites (opiate sites): about four times lower than for serotonin or dopamine sites; also recorded: about four times higher than found for benzodiazepine antagonism; Accumulation inside versus outside the cell (rat retina): three times greater inside than outside the cell; Dependence of accumulation in retina (rat retina): sodium dependent, energy dependent; Harmaline concentration in outer retina relative to control (non-viable) tissue (rat retina; [10]): 3 fold; Harmaline concentration in outer retina relative to surrounding perfusate (rat retina; [10]): 3 fold; Potency at benzodiazepine binding relative to serotonin or dopamine (benzodiazepine receptor): far more potent antagonist of benzodiazepine binding than it is for serotonin or dopamine; Binding affinity for serotonin receptors (serotonin receptors): high binding affinities; Nature of accumulation in human lymphocytes (leukocytes and platelets; fluorescence measurement): saturable, concentration-dependant phenomena; EC50 (leukocytes and platelets; yohimbine 100 μM pretreatment, harmaline 1-100 μM, 5 minutes, read-out: EC50 of fluorescent accumulation (spectrophotofluorometry)): 30 µM; IC50 for muscarinic cholinergic sites relative to other sites [9]: about four times lower than for serotonin or dopamine sites; also recorded: about four times higher than found for benzodiazepine antagonism
COc1ccc2c(c1)[nH]c1c(C)nccc12 [7-methoxy-1-methyl-beta-carboline] | – | 200 | – | 700 | 27 | – | –
c1ccc2c(c1)[nH]c1cnccc12 [beta-carboline] | – | 75 | 335 | 80 | 9.1 | 100 | –
